Results reported in ChEMBL document CHEMBL1212831, “Discovery of N-[(2S)-5-(6-fluoro-3-pyridinyl)-2,3-dihydro-1H-inden-2-yl]-2-propanesulfonamide, a novel clinical AMPA receptor positive modulator” (J Med Chem, 2010).
pIC50: −log10 of the molar value. Values after ≈ are worked out from the molar mass of the structure shown. Active and inactive are the calls of the source. The rule behind the calls is not given here.

What was measured:
[1] = Blood clearance in cynomolgus monkey at 0.125 mg/kg, iv and 0.5 mg/kg, po; format: ADME, organism-based, Macaca fascicularis
[2] = Cmax in cynomolgus monkey at 0.5 mg/kg, po; format: ADME, organism-based, Macaca fascicularis; parameters: dose 0.5 mg/kg, route oral; settings: in vivo
[3] = Equilibrium solubility of the compound in water at pH 2 to 10; format: physicochemical
[4] = Equilibrium solubility of the compound in fed simulated intestinal fluid at pH 2 to 10; format: physicochemical
Liver microsomes [5] = test system: Liver microsomes
[6] = Cmax in Beagle dog at 0.5 mg/kg, po; format: ADME, organism-based, Canis lupus familiaris; parameters: dose 0.5 mg/kg, route oral; settings: in vivo
[7] = Oral bioavailability in Beagle dog at 0.5 mg/kg; format: ADME, organism-based, Canis lupus familiaris; settings: in vivo
[8] = Equilibrium solubility of the compound in simulated gastric fluid at pH 2 to 10; format: physicochemical
[9] = Tmax in Beagle dog at 0.5 mg/kg, po; format: ADME, organism-based, Canis lupus familiaris; parameters: dose 0.5 mg/kg, route oral; settings: in vivo
[10] = molecular target: Voltage-gated inwardly rectifying potassium channel KCNH2 (Homo sapiens, UniProt Q12809); assay: Inhibition of human ERG
[11] = Half life in Beagle dog at 0.5 mg/kg, po; format: ADME, organism-based, Canis lupus familiaris; parameters: dose 0.5 mg/kg, route oral; settings: in vivo
[12] = Oral bioavailability in cynomolgus monkey at 0.5 mg/kg; format: ADME, organism-based, Macaca fascicularis; settings: in vivo
Liver microsomes [13] = test system: Liver microsomes; remark: listed apart in the source
[14] = Oral bioavailability in Sprague-Dawley rat at 3 mg/kg; format: ADME, organism-based; settings: in vivo
[15] = Plasma protein binding in rat at 1 ug/ml after 6 hrs by equilibrium dialysis method; format: ADME, cell-free; settings: read-out: PPB (converted)
Brain = assay: Brain tissue binding in rat at 1 ug/ml after 6 hrs by equilibrium dialysis method; format: ADME, tissue-based
[16] = Cmax in Sprague-Dawley rat at 3 mg/kg, po; format: ADME, organism-based; parameters: dose 3 mg/kg, route oral; settings: in vivo
[17] = Volume of distribution at steady state in Beagle dog at 0.125 mg/kg, iv and 0.5 mg/kg, po; format: ADME, organism-based, Canis lupus familiaris; settings: in vivo, read-out: Vdss
Cynomolgus monkey [18] = assay: Cardiotoxicity in conscious cynomolgus monkey up to 2.5 mg/kg, po; format: toxicity, organism-based, Macaca fascicularis; parameters: dose 2.5 mg/kg, route oral; settings: in vivo
Cytochrome P450 2C19 = Cytochrome P450 2C19 (Homo sapiens, UniProt P33261)
Description: Inhibition of human CYP2C19 after 10 mins

Rattus norvegicus [19] = assay: Liver blood flow in Sprague-Dawley rat at 1 mg/kg, iv and 3 mg/kg, po; format: ADME, organism-based; settings: in vivo
Cynomolgus monkey [20] = assay: Liver blood flow in cynomolgus monkey at 0.125 mg/kg, iv and 0.5 mg/kg, po; format: ADME, organism-based, Macaca fascicularis; settings: in vivo
[21] = Plasma protein binding in human at 1 ug/ml after 6 hrs by equilibrium dialysis method; format: ADME, cell-free; settings: read-out: PPB (converted)
Cytochrome P450 3A4 = Cytochrome P450 3A4 (Homo sapiens, UniProt P08684)
Description: Inhibition of human CYP3A4 after 10 mins

Cytochrome P450 1A2 = molecular target: T1, Cytochrome P450 1A2 (Homo sapiens, UniProt P05177)
T1 sequence (P05177 whole entry): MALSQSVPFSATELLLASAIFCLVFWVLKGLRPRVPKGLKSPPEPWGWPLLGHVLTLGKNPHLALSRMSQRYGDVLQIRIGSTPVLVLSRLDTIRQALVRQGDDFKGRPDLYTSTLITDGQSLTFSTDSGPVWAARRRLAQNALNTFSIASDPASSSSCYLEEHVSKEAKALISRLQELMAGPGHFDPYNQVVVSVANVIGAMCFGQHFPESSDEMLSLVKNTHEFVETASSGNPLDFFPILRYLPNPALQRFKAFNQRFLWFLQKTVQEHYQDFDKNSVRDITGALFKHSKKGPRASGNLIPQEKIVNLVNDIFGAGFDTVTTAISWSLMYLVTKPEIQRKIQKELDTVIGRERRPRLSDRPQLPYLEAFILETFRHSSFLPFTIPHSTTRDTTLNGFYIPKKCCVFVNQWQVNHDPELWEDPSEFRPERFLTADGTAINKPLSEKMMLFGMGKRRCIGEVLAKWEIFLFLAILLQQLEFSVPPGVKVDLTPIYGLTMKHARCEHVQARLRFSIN
Description: Inhibition of human CYP1A2 after 10 mins

[22] = molecular target: T2, Nuclear receptor subfamily 1 group I member 2 (Homo sapiens, UniProt O75469); assay: Activation of human PXR
T2 sequence (O75469 whole entry): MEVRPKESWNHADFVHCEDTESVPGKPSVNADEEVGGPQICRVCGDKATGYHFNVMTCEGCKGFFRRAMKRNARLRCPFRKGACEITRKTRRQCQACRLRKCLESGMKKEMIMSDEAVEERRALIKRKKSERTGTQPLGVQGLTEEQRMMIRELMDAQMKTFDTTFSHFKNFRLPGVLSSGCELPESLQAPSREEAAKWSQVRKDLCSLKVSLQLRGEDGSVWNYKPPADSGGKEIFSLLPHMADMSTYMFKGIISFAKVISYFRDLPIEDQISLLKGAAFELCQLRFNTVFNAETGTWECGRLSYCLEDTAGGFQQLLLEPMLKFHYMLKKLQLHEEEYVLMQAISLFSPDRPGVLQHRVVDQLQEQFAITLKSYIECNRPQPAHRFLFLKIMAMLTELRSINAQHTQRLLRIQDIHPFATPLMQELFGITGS

[23] = Blood clearance in Sprague-Dawley rat at 1 mg/kg, iv and 3 mg/kg, po; format: ADME, organism-based
[24] = Volume of distribution at steady state in Sprague-Dawley rat at 1 mg/kg, iv and 3 mg/kg, po; format: ADME, organism-based; settings: in vivo, read-out: Vdss
Glutamate receptor 2 [25] = molecular target: T3, Glutamate receptor 2 (Homo sapiens, UniProt P42262); assay: Activation of human recombinant GluR2 flip isoform expressed in HEK293 cells assessed as increase of glutamate-induced inward current at 30 uM by whole cell voltage-clamp electrophysiology assay; format: cell-based
Rattus norvegicus [26] = assay: Antiamnesic activity in po dosed assessed as inhibition of Scopolamine-induced amnesic deficit administered 3 hrs before Scopolamine challenge by step-down passive avoidance test; format: functional, organism-based; settings: Wistar
in vivo = settings: rat, brain/blood
Description: Ratio of brain AUC (0 to t) to blood AUC (0 to t) in rat

Glutamate receptor 2 [27] = molecular target: T3, Glutamate receptor 2; assay: Activation of human recombinant GluR2 flip isoform expressed in HEK293 cells assessed as increase of glutamate-induced inward current by whole cell voltage-clamp electrophysiology; format: cell-based
[28] = Blood clearance in Beagle dog at 0.125 mg/kg, iv and 0.5 mg/kg, po; format: ADME, organism-based, Canis lupus familiaris
[29] = Apparent half life in human; format: ADME, organism-based; settings: in vivo, read-out: beta t1/2 (converted)
[30] = Plasma protein binding in dog at 1 ug/ml after 6 hrs by equilibrium dialysis method; format: ADME, cell-free, Canis lupus familiaris; settings: read-out: PPB (converted)
[31] = Half life in Beagle dog at 0.125 mg/kg, iv; format: ADME, organism-based, Canis lupus familiaris; parameters: dose 0.125 mg/kg, route intravenous; settings: in vivo
Cytochrome P450 2C9 = Cytochrome P450 2C9 (Homo sapiens, UniProt P11712)
Description: Inhibition of human CYP2C9 after 10 mins

Homo sapiens [32] = assay: Toxicity in human at 0.25 to 6 mg/kg administered as single dose; format: organism-based; parameters: dose 0.25-6 mg/kg; settings: in vivo
Homo sapiens [33] = assay: Toxicity in human at 0.1 mg/kg QD for 28 days; format: organism-based; parameters: dose 0.1 mg/kg; settings: in vivo, 672 h
Rattus norvegicus [34] = assay: Cognitive enhancing effect in po dosed Lister Hooded rat assessed as reversal of 24 hrs delay-induced retention deficit behavior by novel object recognition assay; format: functional; settings: read-out: MED
[35] = Plasma protein binding in mouse at 1 ug/ml after 6 hrs by equilibrium dialysis method; format: ADME, cell-free; settings: read-out: PPB (converted)

T3 sequence (P42262 whole entry, canonical isoform): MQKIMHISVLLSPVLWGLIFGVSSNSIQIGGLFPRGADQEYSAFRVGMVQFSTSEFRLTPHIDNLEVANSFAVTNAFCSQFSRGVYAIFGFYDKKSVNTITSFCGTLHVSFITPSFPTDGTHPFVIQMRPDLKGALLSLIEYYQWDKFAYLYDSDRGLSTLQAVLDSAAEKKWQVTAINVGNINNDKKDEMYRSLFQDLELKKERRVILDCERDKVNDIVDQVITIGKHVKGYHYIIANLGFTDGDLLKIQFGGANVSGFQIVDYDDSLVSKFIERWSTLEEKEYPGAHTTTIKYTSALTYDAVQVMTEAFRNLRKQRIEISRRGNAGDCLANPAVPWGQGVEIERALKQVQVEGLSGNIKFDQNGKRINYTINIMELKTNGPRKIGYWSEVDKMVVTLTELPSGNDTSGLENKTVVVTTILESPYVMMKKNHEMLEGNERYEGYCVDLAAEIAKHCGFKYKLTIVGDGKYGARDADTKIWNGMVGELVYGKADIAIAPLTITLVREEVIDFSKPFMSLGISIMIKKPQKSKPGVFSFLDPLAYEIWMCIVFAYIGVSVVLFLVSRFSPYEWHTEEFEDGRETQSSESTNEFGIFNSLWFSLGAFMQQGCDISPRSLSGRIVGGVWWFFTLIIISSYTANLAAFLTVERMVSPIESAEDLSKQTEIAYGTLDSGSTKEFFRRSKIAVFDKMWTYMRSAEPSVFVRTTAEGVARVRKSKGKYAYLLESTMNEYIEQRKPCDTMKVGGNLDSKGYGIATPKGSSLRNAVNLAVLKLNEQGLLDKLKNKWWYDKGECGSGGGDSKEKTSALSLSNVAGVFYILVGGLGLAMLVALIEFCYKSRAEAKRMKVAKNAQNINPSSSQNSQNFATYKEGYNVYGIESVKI
Cytochrome P450 2C9, sequence (P11712 whole entry): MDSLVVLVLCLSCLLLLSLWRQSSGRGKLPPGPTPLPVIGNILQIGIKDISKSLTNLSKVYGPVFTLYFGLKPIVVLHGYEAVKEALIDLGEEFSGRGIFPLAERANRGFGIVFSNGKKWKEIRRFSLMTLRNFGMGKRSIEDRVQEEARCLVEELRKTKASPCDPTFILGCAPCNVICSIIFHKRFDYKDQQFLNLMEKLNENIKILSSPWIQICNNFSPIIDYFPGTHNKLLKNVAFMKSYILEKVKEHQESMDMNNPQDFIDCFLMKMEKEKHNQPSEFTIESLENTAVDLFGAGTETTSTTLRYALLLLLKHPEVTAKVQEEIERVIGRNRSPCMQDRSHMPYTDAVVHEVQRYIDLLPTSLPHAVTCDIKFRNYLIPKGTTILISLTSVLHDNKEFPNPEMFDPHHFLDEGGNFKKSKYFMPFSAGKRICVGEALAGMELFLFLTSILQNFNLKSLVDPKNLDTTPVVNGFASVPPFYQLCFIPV
Cytochrome P450 3A4, sequence (P08684 whole entry): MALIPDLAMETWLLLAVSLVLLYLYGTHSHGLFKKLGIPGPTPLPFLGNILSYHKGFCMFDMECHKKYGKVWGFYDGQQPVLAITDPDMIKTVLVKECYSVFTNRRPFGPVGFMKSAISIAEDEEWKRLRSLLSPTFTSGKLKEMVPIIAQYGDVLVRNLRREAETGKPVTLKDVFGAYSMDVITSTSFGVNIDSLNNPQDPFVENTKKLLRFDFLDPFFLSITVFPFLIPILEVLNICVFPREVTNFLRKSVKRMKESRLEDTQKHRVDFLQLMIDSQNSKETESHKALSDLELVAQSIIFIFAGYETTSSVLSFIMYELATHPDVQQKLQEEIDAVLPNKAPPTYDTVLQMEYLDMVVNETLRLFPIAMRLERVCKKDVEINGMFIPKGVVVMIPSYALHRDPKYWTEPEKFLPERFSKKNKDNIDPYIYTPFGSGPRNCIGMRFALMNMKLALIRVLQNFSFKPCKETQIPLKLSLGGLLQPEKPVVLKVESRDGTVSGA
Cytochrome P450 2C19, sequence (P33261 whole entry): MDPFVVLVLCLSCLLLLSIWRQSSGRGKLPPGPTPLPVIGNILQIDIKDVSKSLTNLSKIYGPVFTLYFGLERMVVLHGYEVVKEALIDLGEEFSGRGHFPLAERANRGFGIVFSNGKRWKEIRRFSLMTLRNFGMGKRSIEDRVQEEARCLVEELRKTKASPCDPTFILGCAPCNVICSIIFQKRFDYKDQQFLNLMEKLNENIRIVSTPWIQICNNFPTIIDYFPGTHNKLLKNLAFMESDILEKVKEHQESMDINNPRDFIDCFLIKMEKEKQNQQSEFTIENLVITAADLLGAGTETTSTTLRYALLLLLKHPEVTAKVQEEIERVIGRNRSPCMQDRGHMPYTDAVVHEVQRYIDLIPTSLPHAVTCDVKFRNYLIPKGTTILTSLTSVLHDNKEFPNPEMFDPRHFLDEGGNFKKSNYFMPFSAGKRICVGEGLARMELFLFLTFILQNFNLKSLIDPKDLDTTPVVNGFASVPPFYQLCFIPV
Voltage-gated inwardly rectifying potassium channel KCNH2, sequence (Q12809 whole entry): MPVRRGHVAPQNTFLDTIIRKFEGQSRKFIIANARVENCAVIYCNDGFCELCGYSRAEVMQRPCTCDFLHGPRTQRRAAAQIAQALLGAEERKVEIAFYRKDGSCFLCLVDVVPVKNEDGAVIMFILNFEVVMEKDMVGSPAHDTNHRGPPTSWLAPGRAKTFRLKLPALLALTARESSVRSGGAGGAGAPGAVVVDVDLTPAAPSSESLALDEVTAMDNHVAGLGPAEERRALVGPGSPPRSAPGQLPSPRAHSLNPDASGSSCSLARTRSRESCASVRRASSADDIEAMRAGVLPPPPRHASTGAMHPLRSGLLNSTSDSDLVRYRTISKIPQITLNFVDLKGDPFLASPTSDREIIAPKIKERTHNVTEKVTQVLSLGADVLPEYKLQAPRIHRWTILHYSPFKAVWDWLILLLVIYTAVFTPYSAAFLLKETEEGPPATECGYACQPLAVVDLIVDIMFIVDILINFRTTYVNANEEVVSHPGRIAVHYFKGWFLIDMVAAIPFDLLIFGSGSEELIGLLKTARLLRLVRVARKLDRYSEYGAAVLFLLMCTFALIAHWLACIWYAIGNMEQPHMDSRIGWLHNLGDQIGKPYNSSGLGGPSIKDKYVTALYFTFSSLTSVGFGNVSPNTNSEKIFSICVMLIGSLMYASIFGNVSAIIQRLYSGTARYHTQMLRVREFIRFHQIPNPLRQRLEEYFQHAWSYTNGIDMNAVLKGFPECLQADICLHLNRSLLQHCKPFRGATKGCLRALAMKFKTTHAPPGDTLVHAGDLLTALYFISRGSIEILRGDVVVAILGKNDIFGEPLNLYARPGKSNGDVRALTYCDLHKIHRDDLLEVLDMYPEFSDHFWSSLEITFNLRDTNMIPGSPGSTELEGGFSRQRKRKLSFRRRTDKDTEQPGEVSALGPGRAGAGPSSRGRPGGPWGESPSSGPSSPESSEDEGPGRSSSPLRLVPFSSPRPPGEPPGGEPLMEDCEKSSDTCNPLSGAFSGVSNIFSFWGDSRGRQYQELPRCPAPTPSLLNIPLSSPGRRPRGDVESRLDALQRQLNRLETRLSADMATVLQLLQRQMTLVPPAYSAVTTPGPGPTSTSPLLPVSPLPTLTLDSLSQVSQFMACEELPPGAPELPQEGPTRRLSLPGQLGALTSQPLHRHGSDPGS

CC(C)S(=O)(=O)N[C@H]1Cc2ccc(-c3ccc(F)nc3)cc2C1 [GSK-729327]
clearance [1]: 1.4 mL/min/kg | Cmax [2]: 115 ng/mL | solubility thermodynamic [3]: 100 µg/mL (≈ 299 µM) | solubility thermodynamic [4]: 100 µg/mL (≈ 299 µM) | pIC50 (Liver microsomes [5]): 6.15 | Cmax [6]: 116 ng/mL | bioavailability [7]: 61% | solubility thermodynamic [8]: 100 µg/mL (≈ 299 µM) | Tmax [9]: 2 h | inhibition (INH) [10]: Not Active | half-life [11]: 17 h | bioavailability [12]: 51% | pIC50 (Liver microsomes [13]): > 6.15 | bioavailability [14]: 61% | fraction unbound at 6 h, 1 ug/ml [15]: 0.133 | Activity (Brain): 97.4% | Cmax [16]: 416 ng/mL | Vd [17]: 4.8 L/kg | Activity (Cynomolgus monkey [18]): Non-toxic | pIC50 (Cytochrome P450 2C19): < 5.00 | LBF (Rattus norvegicus [19]): 6% | LBF (Cynomolgus monkey [20]): 3% | fraction unbound at 6 h, 1 ug/ml [21]: 0.092 | pIC50 (Cytochrome P450 3A4): < 5.00 | pIC50 (Cytochrome P450 1A2): < 5.00 | Activity [22]: Not Active | clearance [23]: 5.4 mL/min/kg | Vd [24]: 2.4 L/kg | Activity (Glutamate receptor 2 [25]): Active | Activity (Rattus norvegicus [26]): Dose-dependent effect | Kp (in vivo): 2.1 | Activity (Glutamate receptor 2 [27]): Dose-dependent effect | clearance [28]: 3.4 mL/min/kg | half-life [29]: 107 h | fraction unbound at 6 h, 1 ug/ml [30]: 0.205 | half-life [31]: 16 h | pIC50 (Cytochrome P450 2C9): < 5.00 | Activity (Homo sapiens [32]): Non-toxic | Activity (Homo sapiens [33]): Non-toxic | minimal effective dose (Rattus norvegicus [34]): 0.3 mg/kg | fraction unbound at 6 h, 1 ug/ml [35]: 0.15
